# Assay results: US8372799B2, “Reverse protein” (Apeptico Forschung und Entwicklung GmbH, priority 2007, dated 2013)
# Target: T1, epithelial sodium channels (Homo sapiens, UniProt P37088+P51168+P51170)
# T1 construct: endogenous in cells; host or cells: A549 human lung epithelial cells (ATCC CCL-185)
# T1 sequence (P37088 1-669): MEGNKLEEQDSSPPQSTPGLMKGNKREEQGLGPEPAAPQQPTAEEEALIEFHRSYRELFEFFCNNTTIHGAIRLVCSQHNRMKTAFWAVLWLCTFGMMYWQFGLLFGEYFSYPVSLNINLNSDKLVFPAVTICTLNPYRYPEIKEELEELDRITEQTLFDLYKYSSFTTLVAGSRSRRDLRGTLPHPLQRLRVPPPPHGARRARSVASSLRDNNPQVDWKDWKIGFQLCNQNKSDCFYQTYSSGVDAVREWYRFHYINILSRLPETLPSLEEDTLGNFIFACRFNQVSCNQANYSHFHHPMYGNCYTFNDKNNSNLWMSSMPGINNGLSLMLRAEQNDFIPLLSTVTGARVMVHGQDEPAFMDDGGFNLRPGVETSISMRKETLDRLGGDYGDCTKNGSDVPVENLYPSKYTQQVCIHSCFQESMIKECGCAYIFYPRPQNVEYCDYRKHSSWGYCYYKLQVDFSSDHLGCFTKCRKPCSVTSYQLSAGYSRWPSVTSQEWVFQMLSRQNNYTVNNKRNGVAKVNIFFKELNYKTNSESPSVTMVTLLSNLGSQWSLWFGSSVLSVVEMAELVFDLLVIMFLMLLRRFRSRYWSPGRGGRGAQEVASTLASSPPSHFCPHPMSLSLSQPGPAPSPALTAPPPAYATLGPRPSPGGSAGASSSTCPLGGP
# T1 sequence (P51168 1-640): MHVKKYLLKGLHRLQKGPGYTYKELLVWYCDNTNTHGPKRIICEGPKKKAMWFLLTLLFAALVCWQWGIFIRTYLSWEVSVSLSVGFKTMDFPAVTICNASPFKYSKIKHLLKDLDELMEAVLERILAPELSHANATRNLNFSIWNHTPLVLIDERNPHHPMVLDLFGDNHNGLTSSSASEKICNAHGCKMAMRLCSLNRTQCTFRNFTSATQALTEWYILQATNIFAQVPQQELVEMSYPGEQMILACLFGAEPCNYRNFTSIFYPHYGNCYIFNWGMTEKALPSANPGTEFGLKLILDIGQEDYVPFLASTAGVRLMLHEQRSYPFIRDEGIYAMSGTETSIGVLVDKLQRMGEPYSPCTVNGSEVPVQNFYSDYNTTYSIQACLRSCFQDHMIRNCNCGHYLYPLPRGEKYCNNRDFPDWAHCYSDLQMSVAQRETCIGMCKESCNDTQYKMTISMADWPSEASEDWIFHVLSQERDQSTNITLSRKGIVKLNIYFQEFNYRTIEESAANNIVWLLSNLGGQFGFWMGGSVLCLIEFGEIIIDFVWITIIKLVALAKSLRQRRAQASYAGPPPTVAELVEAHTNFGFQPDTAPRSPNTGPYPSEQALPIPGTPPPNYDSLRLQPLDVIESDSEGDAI
# T1 sequence (P51170 1-649): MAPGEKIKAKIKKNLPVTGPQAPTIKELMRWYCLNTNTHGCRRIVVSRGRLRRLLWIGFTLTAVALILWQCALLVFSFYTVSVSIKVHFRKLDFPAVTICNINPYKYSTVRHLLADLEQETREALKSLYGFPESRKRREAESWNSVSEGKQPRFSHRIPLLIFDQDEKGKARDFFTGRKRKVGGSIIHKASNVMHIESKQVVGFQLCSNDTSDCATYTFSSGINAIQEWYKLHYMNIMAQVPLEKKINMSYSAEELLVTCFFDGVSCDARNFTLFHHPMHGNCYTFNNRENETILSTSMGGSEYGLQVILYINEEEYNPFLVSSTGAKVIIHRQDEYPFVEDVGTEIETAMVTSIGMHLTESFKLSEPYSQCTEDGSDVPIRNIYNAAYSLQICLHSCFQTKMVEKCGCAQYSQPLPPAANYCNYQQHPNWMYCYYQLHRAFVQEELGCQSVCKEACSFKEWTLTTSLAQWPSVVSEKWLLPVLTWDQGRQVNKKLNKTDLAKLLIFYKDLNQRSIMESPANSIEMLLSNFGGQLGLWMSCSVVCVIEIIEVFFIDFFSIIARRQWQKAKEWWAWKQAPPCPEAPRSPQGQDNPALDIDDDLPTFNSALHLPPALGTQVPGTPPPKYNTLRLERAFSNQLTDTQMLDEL
# Assay: Patch-clamp activation of sodium ion channels in A549 cells
# Format: cell-based
# Conditions: 10 μM amiloride
# Description: Furthermore, a method common in laboratories is to detect the activation of ion channels by means of patch-clamp experiments, and this is described, for example, in Clunes M. T. et al, J Physiol Volume 557, No. 3, 809-819 (Jun. 15, 2004). For patch-clamp examinations of ion channels, a glass cannula is stretched thin and filled with a neutral buffer solution. The glass cannula (patch-clamp pipette) is carefully pressed onto an intact epithelial cell. A piece of membrane is located below the pipette. An electrical resistance is thereby produced between the interior of the pipette and the external solution. An electrode attached to a sensitive amplifier dips into the pipette solution.
# The electrophysiological experiments were performed on human A549 cells (ATTC No. CCL-185). A549 cells are human lung epithelial cells which are involved in the diffusion of water and electrolytes in the lungs.
# The cells were suspended in DMEM-F-12 medium with 1% penicillin-streptomycin and 10% fetal calf serum, transferred into plastic cell culture vessels and cultivated in the incubator with 95% air and 5% CO2 at 37° C. The medium was changed 2 to 3 times per week. The cells double within approx. 22 hours and a cell concentration of more than 7×10^4 cells per cm^2 was not exceeded.
# Macroscopic currents and single-channel currents were discharged from A549 cells in the “whole cell” and “cell-attached” configuration of the “patch-clamp” technique (Hamill et al, Pflugers Arch. 1981, 391(2):85-100, 1981). For the current dissipations in the “whole cell” configuration, the following bath and electrode solutions were used:
# Bath solution: 135 mM sodium methane sulfonate, 10 mM NaCl, 2.7 mM KCl, 1.8 mM CaCl2, 2 mM MgCl2, 5.5 mM glucose, and 10 mM HEPES, pH 7.4. […]
# The cover slips with the cells cultivated thereon were transferred into a test bath with a capacity of 1 ml, fixed on the microscope table (Axiovert 100, 400-fold magnification), and the cells were superfused with the above-described bath solution. […] In the “cell-attached” configuration, the current can be measured through individual ion channels beneath the electrode tip. In the “whole cell” configuration, the membrane was penetrated beneath the electrode tip so that the current flowing through all ion channels of the cell could be measured. […] Upon obtaining a Gigaohm seal, a defined membrane retaining potential was applied via a pre-amplifier (CV-4 Headstage, Axon Instruments) and an amplifier (Axopatch 1D, Axon Instr.) and the current thereby flowing through the ion channels was measured.
# The pulse protocol consisted of a hyperpolarization to −100 mV for 1 s at an interval of 5 s. […] The current dissipations thus obtained were stored and analyzed by means of the program PCLAMP 6.0. […]
compound,measurement,value
"N=C(N)NC(=O)c1nc(Cl)c(N)nc1N [amiloride, reference compound]",inhibition of ion channels (patch clamp),inhibition of ion channels
